In the assay the target is T1, LdAAP3 (Leishmania donovani, UniProt Q86G79).
T1 construct: native transporter in intact mid-log promastigotes, not overexpressed; no construct
T1 sequence (Q86G79 1-480): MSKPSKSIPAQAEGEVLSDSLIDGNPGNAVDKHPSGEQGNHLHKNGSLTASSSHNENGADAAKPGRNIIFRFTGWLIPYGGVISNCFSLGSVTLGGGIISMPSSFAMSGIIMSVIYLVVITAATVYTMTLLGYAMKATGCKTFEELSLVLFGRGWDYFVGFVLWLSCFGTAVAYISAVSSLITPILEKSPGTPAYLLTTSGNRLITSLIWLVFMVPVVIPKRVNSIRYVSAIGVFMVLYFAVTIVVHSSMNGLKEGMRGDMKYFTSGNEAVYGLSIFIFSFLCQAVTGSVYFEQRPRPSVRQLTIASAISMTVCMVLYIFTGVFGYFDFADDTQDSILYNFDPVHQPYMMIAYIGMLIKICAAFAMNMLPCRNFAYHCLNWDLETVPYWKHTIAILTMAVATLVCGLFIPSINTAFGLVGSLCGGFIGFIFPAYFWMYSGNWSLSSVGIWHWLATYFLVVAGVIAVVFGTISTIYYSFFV
Kind of assay: inhibition of [3H]arginine uptake by intact promastigotes, rapid filtration. The format is cell-based. To be noted: read-out: Percent arginine transport inhibition. From the text:
inhibition of [3H]arginine uptake by intact promastigotes, rapid filtration on LdAAP3

SMILES strings stand for the structures.

On to `N=C(N)c1ccc(OCCCCCOc2ccc(C(=N)N)cc2)cc1` [compound 2, Pentamidine], for which the inhibition at 100 µM is 38%.
Consider `N=C(N)NOCC[C@H](N)C(=O)O` [compound 4, Canavanine], for which the inhibition at 500 µM was 40%.
On to `NC(=O)NCCC[C@H](N)C(=O)O` [compound 9, L-citrulline], for which the inhibition at 1000 µM worked out at 10%.
For `CNC(=N)NCCC[C@H](N)C(=O)O` [compound 3, N-Methyl L-Arginine Acetate], the inhibition at 1000 µM stood at 66%.

In general, inhibition refers to the relative decrease from the control value, in per cent.

The values are drawn from PMC6502434, “The arginine sensing and transport binding sites are distinct in the human pathogen Leishmania” (PLoS Neglected Tropical Diseases, 2019).
